Test results published in ChEMBL document CHEMBL1649540, “The novel CXCR4 antagonist KRH-3955 is an orally bioavailable and extremely potent inhibitor of human immunodeficiency virus type 1 infection: comparative studies with AMD3100” (Antimicrob Agents Chemother, 2009).
Calls of active or inactive are those of the source. No cut-off for these calls is given here.

Assays:
[1] = target: T1, C-X-C chemokine receptor type 4 (Homo sapiens, UniProt P61073); assay: Inhibition of Mab A145 binding to CXCR4 expressed in human MOLT4 cells at 0.1 to 1000 nM by FACS analysis; format: cell-based; settings: MOLT-4
[2] = test system: Human immunodeficiency virus 1; assay: Antiviral activity against HIV1 X4 infected in human PBMC assessed as inhibition of viral p24 antigen production after 7 to 10 days by ELISA; format: functional, organism-based; settings: Human immunodeficiency virus 1, X4
[3] = test system: Human immunodeficiency virus 1; assay: Antiviral activity against HIV1 89.6 infected in human PBMC assessed as inhibition of viral p24 antigen production after 7 to 10 days by ELISA; format: functional, organism-based; settings: Human immunodeficiency virus 1, 89.6
[4] = test system: Human immunodeficiency virus 1; assay: Antiviral activity against PI-resistant HIV1 HXB2 infected in HEK293 cells assessed as inhibition of viral replication after 2 days; format: functional, organism-based; settings: Human immunodeficiency virus 1, HXB2, HEK293, 48 h
[5] = target: T1, C-X-C chemokine receptor type 4; assay: Displacement of [125I]SDF-1alpha form CXCR4 expressed in human MOLT4 cells by scintillation counting; format: cell-based; settings: MOLT-4
[6] = target: C-C chemokine receptor type 4 (Homo sapiens) (UniProt P51679); assay: Displacement of [125I]TARC form CCR4 expressed in CHO cells by scintillation counting; format: cell-based
[7] = target: C-C chemokine receptor type 5 (Homo sapiens) (UniProt P51681); assay: Displacement of [125I]RANTES form CCR5 expressed in CHO cells by scintillation counting; format: cell-based
[8] = target: T1, C-X-C chemokine receptor type 4; assay: Inhibition of Mab 12G5 binding to CXCR4 expressed in human MOLT4 cells at 10 nM measured post drug washout by FACS analysis; format: cell-based; settings: MOLT-4
[9] = Clearance in Sprague-Dawley rat at 10 mg/kg, iv administered as single dose; format: ADME, organism-based; design: dose 10 mg/kg, route intravenous; settings: in vivo
[10] = test system: Human immunodeficiency virus 1; assay: Antiviral activity against HIV1 NL4-3 infected in SCID mouse assessed as viral p24 antigen level in spleen at 10 mg/kg, po administered as single dose after 7 days; format: functional
[11] = target: T1, C-X-C chemokine receptor type 4; assay: Inhibition of Mab 12G5 binding to wild type CXCR4 expressed in HEK293 cells; format: cell-based
[12] = test system: C-X-C chemokine receptor type 4 (Homo sapiens), P61073 [D181A]; assay: (§1) Inhibition of Mab 12G5 binding to CXCR4 D181A mutant expressed in HEK293 cells; format: cell-based
[13] = target: C-X-C chemokine receptor type 4 (Homo sapiens, UniProt P61073, D181A); assay: as §1; format: cell-based
[14] = test system: C-X-C chemokine receptor type 4 (Homo sapiens), P61073 [V280A]; assay: (§2) Inhibition of Mab 12G5 binding to CXCR4 V280A mutant expressed in HEK293 cells; format: cell-based
[15] = target: C-X-C chemokine receptor type 4 (Homo sapiens, UniProt P61073, V280A); assay: as §2; format: cell-based
[16] = test system: C-X-C chemokine receptor type 4 (Homo sapiens), P61073 [H281A]; assay: (§3) Inhibition of Mab 12G5 binding to CXCR4 H281A mutant expressed in HEK293 cells; format: cell-based
[17] = target: C-X-C chemokine receptor type 4 (Homo sapiens, UniProt P61073, H281A); assay: as §3; format: cell-based
[18] = test system: C-X-C chemokine receptor type 4 (Homo sapiens), P61073 [I284A]; assay: (§4) Inhibition of Mab 12G5 binding to CXCR4 I284A mutant expressed in HEK293 cells; format: cell-based
[19] = target: C-X-C chemokine receptor type 4 (Homo sapiens, UniProt P61073, I284A); assay: as §4; format: cell-based
[20] = target: C-X-C chemokine receptor type 4 (Homo sapiens, UniProt P61073, D262A)
[21] = target: C-X-C chemokine receptor type 4 (Homo sapiens, UniProt P61073, W283A)
[22] = Tmax in Sprague-Dawley rat at 10 mg/kg, po administered as single dose; settings: in vivo
[23] = test system: C-X-C chemokine receptor type 4 (Homo sapiens), P61073 [D171A]; settings: HEK293
[24] = test system: C-X-C chemokine receptor type 4 (Homo sapiens), P61073 [D262A]; settings: HEK293
[25] = test system: C-X-C chemokine receptor type 4 (Homo sapiens), P61073 [E277A]; settings: HEK293
[26] = test system: C-X-C chemokine receptor type 4 (Homo sapiens), P61073 [W283A]; settings: HEK293
C-X-C chemokine receptor type 4 (Homo sapiens), P61073 [W283A], sequence (P61073 whole entry W283A): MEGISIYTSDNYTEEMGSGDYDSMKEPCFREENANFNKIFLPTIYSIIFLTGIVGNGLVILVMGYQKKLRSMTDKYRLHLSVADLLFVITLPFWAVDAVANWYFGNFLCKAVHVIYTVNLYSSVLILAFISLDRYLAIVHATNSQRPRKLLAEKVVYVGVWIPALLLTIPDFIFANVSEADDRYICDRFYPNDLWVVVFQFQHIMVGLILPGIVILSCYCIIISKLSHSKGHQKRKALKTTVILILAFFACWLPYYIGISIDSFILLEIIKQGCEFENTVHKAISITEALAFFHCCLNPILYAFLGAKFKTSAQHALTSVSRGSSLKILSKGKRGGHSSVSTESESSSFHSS

T1 sequence (P61073 whole entry): as the sequence (P61073 whole entry W283A) above, with A283W counted along it
C-X-C chemokine receptor type 4 (Homo sapiens, UniProt P61073, W283A), sequence (P61073 whole entry W283A): as the sequence (P61073 whole entry W283A) above
C-X-C chemokine receptor type 4 (Homo sapiens, UniProt P61073, V280A), sequence (P61073 whole entry V280A): as the sequence (P61073 whole entry W283A) above, with V280A, A283W counted along it
C-X-C chemokine receptor type 4 (Homo sapiens), P61073 [V280A], sequence (P61073 whole entry V280A): as the sequence (P61073 whole entry W283A) above, with V280A, A283W counted along it
C-X-C chemokine receptor type 4 (Homo sapiens), P61073 [D181A], sequence (P61073 whole entry D181A): as the sequence (P61073 whole entry W283A) above, with D181A, A283W counted along it
C-X-C chemokine receptor type 4 (Homo sapiens, UniProt P61073, D181A), sequence (P61073 whole entry D181A): as the sequence (P61073 whole entry W283A) above, with D181A, A283W counted along it
C-X-C chemokine receptor type 4 (Homo sapiens), P61073 [I284A], sequence (P61073 whole entry I284A): as the sequence (P61073 whole entry W283A) above, with A283W, I284A counted along it
C-X-C chemokine receptor type 4 (Homo sapiens, UniProt P61073, I284A), sequence (P61073 whole entry I284A): as the sequence (P61073 whole entry W283A) above, with A283W, I284A counted along it
C-C chemokine receptor type 4 (Homo sapiens), sequence (P51679 whole entry): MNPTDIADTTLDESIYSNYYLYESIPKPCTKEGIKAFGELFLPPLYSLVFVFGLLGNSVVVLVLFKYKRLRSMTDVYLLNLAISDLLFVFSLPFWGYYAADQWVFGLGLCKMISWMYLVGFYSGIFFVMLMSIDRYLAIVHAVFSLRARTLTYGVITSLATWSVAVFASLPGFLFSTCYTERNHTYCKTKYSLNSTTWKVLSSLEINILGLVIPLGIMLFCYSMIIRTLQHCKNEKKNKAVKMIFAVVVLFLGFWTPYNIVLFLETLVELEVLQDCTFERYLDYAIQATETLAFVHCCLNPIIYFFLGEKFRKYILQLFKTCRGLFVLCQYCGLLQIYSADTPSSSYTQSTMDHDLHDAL
C-X-C chemokine receptor type 4 (Homo sapiens), P61073 [H281A], sequence (P61073 whole entry H281A): as the sequence (P61073 whole entry W283A) above, with H281A, A283W counted along it
C-X-C chemokine receptor type 4 (Homo sapiens, UniProt P61073, H281A), sequence (P61073 whole entry H281A): as the sequence (P61073 whole entry W283A) above, with H281A, A283W counted along it
C-X-C chemokine receptor type 4 (Homo sapiens), P61073 [D262A], sequence (P61073 whole entry D262A): as the sequence (P61073 whole entry W283A) above, with D262A, A283W counted along it
C-X-C chemokine receptor type 4 (Homo sapiens, UniProt P61073, D262A), sequence (P61073 whole entry D262A): as the sequence (P61073 whole entry W283A) above, with D262A, A283W counted along it
C-C chemokine receptor type 5 (Homo sapiens), sequence (P51681 whole entry, looked up): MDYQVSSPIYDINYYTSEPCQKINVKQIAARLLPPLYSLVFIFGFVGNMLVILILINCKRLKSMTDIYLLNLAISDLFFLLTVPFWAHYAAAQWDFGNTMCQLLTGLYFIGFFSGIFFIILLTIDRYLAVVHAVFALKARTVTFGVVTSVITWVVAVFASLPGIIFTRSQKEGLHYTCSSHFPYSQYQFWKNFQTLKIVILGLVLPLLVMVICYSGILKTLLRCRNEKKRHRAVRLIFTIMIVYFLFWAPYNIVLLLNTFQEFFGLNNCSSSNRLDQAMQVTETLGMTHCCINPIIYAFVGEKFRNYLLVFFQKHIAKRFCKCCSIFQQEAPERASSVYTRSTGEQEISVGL
C-X-C chemokine receptor type 4 (Homo sapiens), P61073 [E277A], sequence (P61073 whole entry E277A): as the sequence (P61073 whole entry W283A) above, with E277A, A283W counted along it
C-X-C chemokine receptor type 4 (Homo sapiens), P61073 [D171A], sequence (P61073 whole entry D171A): as the sequence (P61073 whole entry W283A) above, with D171A, A283W counted along it

CCCN(CCC)CCCCN(C)Cc1ccc(CN(Cc2ncc[nH]2)Cc2nccn2C)cc1.O=C(O)C(O)C(O)C(=O)O
inhibition [1]: inactive
EC50 [2]: 0.33 nM
EC50 [3]: 0.38 nM
IC50 [4]: 0.7 nM
Activity [5]: Active
Activity [6]: inactive
Activity [7]: inactive
inhibition [8]: Active
clearance [9]: 65 mL/min/kg
Activity [10]: <5 pg/mL
IC50 [11]: 2.8 nM
IC90 [11]: 8.2 nM
IC90 [12]: 5.1 nM
IC50 [13]: 0.5 nM
IC90 [14]: 6.1 nM
IC50 [15]: 1 nM
IC90 [16]: 248 nM
IC50 [17]: 14.1 nM
IC90 [18]: 6.8 nM
IC50 [19]: 1.2 nM
IC50 [20]: 1.6 nM
IC50 [21]: 1.3 nM
Tmax [22]: 2.3 h
IC90 [23]: > 10 nM
IC90 [24]: 8.1 nM
IC90 [25]: 8.7 nM
IC90 [26]: 6.9 nM
